# Test results from the supplement of paper PMC10307832.
# Compound: CC(C)C[C@H](NC(=O)[C@H](CCc1ccccc1)NC(=O)CN1CCOCC1)C(=O)N[C@@H](Cc1ccccc1)C(=O)N[C@@H](CC(C)C)C(=O)[C@@]1(C)CO1 [Carfilzomib] + CC1(C)CCC(c2ccc(Cl)cc2)=C(CN2CCN(c3ccc(C(=O)NS(=O)(=O)c4ccc(N[C@H](CCN5CCOCC5)CSc5ccccc5)c(S(=O)(=O)C(F)(F)F)c4)cc3)CC2)C1 [Navitoclax] (partner 0.5 µM)
# Assay: relative viability (nuclei count vs DMSO), 5 days (fraction); higher = more cells survive
# Settings: first compound 0.1 µM
# Method in brief: (§1)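 Relative viability divides the nuclei count in treated wells by that in vehicle wells. Lung cancer cell lines were seeded in 1536-well plates, dosed by pin tool the next day, and fixed and stained after 5 days in one step with final 0.05% Triton X-100, 1% formaldehyde and 1 ug/ml Hoechst. Dosing was a single drug or a fixed anchor-drug dose plus five library-drug doses (not always all listed) in √10 steps, and values are medians of duplicate plates imaged at 4×.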
row,Cell Line,relative viability
1,NCI-H2087,0.0804
2,NCI-H2126,0.592
3,NCI-H2170,0.197
4,NCI-H2347,0.235
5,NCI-H2405,0.092

# Compound: CC(C)C[C@H](NC(=O)[C@H](CCc1ccccc1)NC(=O)CN1CCOCC1)C(=O)N[C@@H](Cc1ccccc1)C(=O)N[C@@H](CC(C)C)C(=O)[C@@]1(C)CO1 [Carfilzomib] + Nc1ncn([C@H]2C[C@H](O)[C@@H](CO)O2)c(=O)n1 [Decitabine] (partner 2 µM)
# Assay: as above
# Settings: first compound 0.001 µM
# Method in brief: as §1
row,Cell Line,relative viability
1,LOU-NH91,0.823
2,LU99A,0.952
3,LXF-289,0.368
4,NCI-H23,0.33
5,NCI-H322M,0.621
6,NCI-H441,0.23
7,NCI-H460,0.453
8,NCI-H520,0.494
9,NCI-H647,0.365
10,NCI-H727,0.897
11,NCI-H838,0.437
12,NCI-H1355,0.379
13,NCI-H1437,0.58
14,NCI-H1650,0.42
15,NCI-H1651,0.467
16,NCI-H1666,0.707
17,NCI-H1734,0.482
18,NCI-H1755,0.732
19,NCI-H1915,0.257
20,NCI-H1944,0.405
21,NCI-H1975,0.378
22,NCI-H1993,0.542
23,NCI-H2009,0.401
24,NCI-H2023,0.184
25,NCI-H2085,0.589
26,NCI-H2087,0.214
27,NCI-H2126,0.627
28,NCI-H2170,0.451
29,NCI-H2347,0.625
30,NCI-H2405,0.803

# Same assay, conditions: first compound 0.003162 µM
row,Cell Line,relative viability
1,LOU-NH91,0.864
2,LU99A,1.13
3,LXF-289,0.399
4,NCI-H23,0.336
5,NCI-H322M,0.756
6,NCI-H441,0.258
7,NCI-H460,0.514
8,NCI-H520,0.5
9,NCI-H647,0.321
10,NCI-H727,0.937
11,NCI-H838,0.498
12,NCI-H1355,0.402
13,NCI-H1395,0.756
14,NCI-H1437,0.599
15,NCI-H1650,0.522
16,NCI-H1651,0.677

row,Cell Line,relative viability
1,NCI-H1666,0.782
2,NCI-H1734,0.517
3,NCI-H1755,0.729
4,NCI-H1792,0.592
5,NCI-H1915,0.296
6,NCI-H1944,0.447
7,NCI-H1975,0.451
8,NCI-H1993,0.589
9,NCI-H2009,0.391
10,NCI-H2023,0.23
11,NCI-H2085,0.608
12,NCI-H2087,0.247
13,NCI-H2126,0.625
14,NCI-H2170,0.474
15,NCI-H2347,0.608
16,NCI-H2405,0.881

# Same assay, conditions: first compound 0.01 µM
row,Cell Line,relative viability
1,LOU-NH91,0.852
2,LU99A,0.961
3,LXF-289,0.375
4,NCI-H23,0.307
5,NCI-H322M,0.615
6,NCI-H441,0.211
7,NCI-H460,0.394
8,NCI-H520,0.398
9,NCI-H647,0.274
10,NCI-H727,0.836
11,NCI-H838,0.434
12,NCI-H1355,0.353
13,NCI-H1395,0.602
14,NCI-H1437,0.567
15,NCI-H1650,0.359
16,NCI-H1651,0.32

row,Cell Line,relative viability
1,NCI-H1666,0.751
2,NCI-H1734,0.48
3,NCI-H1755,0.669
4,NCI-H1792,0.619
5,NCI-H1915,0.24
6,NCI-H1944,0.449
7,NCI-H1975,0.365
8,NCI-H1993,0.658
9,NCI-H2009,0.401
10,NCI-H2023,0.173
11,NCI-H2085,0.584
12,NCI-H2087,0.179
13,NCI-H2126,0.552
14,NCI-H2170,0.448
15,NCI-H2347,0.66
16,NCI-H2405,0.763

# Same assay, conditions: first compound 0.03162 µM
row,Cell Line,relative viability
1,LOU-NH91,0.413
2,LU99A,0.821
3,LXF-289,0.162
4,NCI-H23,0.24
5,NCI-H322M,0.718
6,NCI-H441,0.122
7,NCI-H460,0.414
8,NCI-H520,0.16
9,NCI-H647,0.049
10,NCI-H727,0.9
11,NCI-H838,0.27
12,NCI-H1355,0.377
13,NCI-H1395,0.441
14,NCI-H1437,0.413
15,NCI-H1650,0.148
16,NCI-H1651,0.163

row,Cell Line,relative viability
1,NCI-H1666,0.704
2,NCI-H1734,0.474
3,NCI-H1755,0.755
4,NCI-H1792,0.542
5,NCI-H1915,0.259
6,NCI-H1944,0.453
7,NCI-H1975,0.132
8,NCI-H1993,0.541
9,NCI-H2009,0.268
10,NCI-H2023,0.203
11,NCI-H2085,0.421
12,NCI-H2087,0.0542
13,NCI-H2126,0.597
14,NCI-H2170,0.477
15,NCI-H2347,0.594
16,NCI-H2405,0.57

# Same assay, conditions: first compound 0.1 µM
row,Cell Line,relative viability
1,LOU-NH91,0.389
2,LU99A,0.317
3,LXF-289,0.0931
4,NCI-H23,0.164
5,NCI-H322M,0.505
6,NCI-H441,0.14
7,NCI-H460,0.0292
8,NCI-H520,0.173
9,NCI-H647,0.0498
10,NCI-H727,0.746
11,NCI-H838,0.178
12,NCI-H1355,0.157
13,NCI-H1395,0.319
14,NCI-H1437,0.316
15,NCI-H1650,0.177
16,NCI-H1651,0.0885

row,Cell Line,relative viability
1,NCI-H1666,0.403
2,NCI-H1734,0.136
3,NCI-H1755,0.446
4,NCI-H1792,0.207
5,NCI-H1915,0.106
6,NCI-H1944,0.234
7,NCI-H1975,0.147
8,NCI-H1993,0.461
9,NCI-H2009,0.0605
10,NCI-H2023,0.0666
11,NCI-H2085,0.297
12,NCI-H2087,0.0427
13,NCI-H2126,0.555
14,NCI-H2170,0.22
15,NCI-H2347,0.389
16,NCI-H2405,0.225

# Compound: C[C@@H](Oc1cc(-c2cnn(C3CCNCC3)c2)cnc1N)c1c(Cl)ccc(F)c1Cl [Crizotinib] + N=C(N)NC(=N)NCCc1ccccc1 [Phenformin] (partner 250 µM)
# Assay: as above
# Settings: first compound 0.01 µM
# Method in brief: as §1
row,Cell Line,relative viability
1,LOU-NH91,0.684
2,LU99A,0.761
3,LXF-289,0.494
4,NCI-H23,0.743
5,NCI-H322M,0.627
6,NCI-H441,0.671
7,NCI-H460,0.488
8,NCI-H520,0.449
9,NCI-H647,0.494
10,NCI-H838,0.553
11,NCI-H1355,0.431
12,NCI-H1395,0.435
13,NCI-H1437,0.278
14,NCI-H1650,0.411
15,NCI-H1651,0.294
16,NCI-H1666,0.514
17,NCI-H1734,0.358
18,NCI-H1755,0.593
19,NCI-H1915,0.382
20,NCI-H1944,0.19
21,NCI-H1975,0.376
22,NCI-H1993,0.493
23,NCI-H2009,0.479
24,NCI-H2023,0.397
25,NCI-H2085,0.626
26,NCI-H2087,0.36
27,NCI-H2126,0.464
28,NCI-H2170,0.394
29,NCI-H2347,0.24
30,NCI-H2405,0.364

# Same assay, conditions: first compound 0.03162 µM
row,Cell Line,relative viability
1,LOU-NH91,0.756
2,LU99A,0.857
3,LXF-289,0.512
4,NCI-H23,0.855
5,NCI-H322M,0.821
6,NCI-H441,0.87
7,NCI-H460,0.521
8,NCI-H520,0.682
9,NCI-H647,0.634
10,NCI-H727,0.608
11,NCI-H838,0.604
12,NCI-H1355,0.497
13,NCI-H1395,0.464
14,NCI-H1437,0.306
15,NCI-H1650,0.401
16,NCI-H1651,0.356

row,Cell Line,relative viability
1,NCI-H1666,0.598
2,NCI-H1734,0.368
3,NCI-H1755,0.681
4,NCI-H1792,0.357
5,NCI-H1915,0.377
6,NCI-H1944,0.194
7,NCI-H1975,0.419
8,NCI-H1993,0.51
9,NCI-H2009,0.492
10,NCI-H2023,0.406
11,NCI-H2085,0.807
12,NCI-H2087,0.502
13,NCI-H2126,0.591
14,NCI-H2170,0.443
15,NCI-H2347,0.329
16,NCI-H2405,0.417

# Same assay, conditions: first compound 0.1 µM
row,Cell Line,relative viability
1,LOU-NH91,0.788
2,LU99A,0.786
3,LXF-289,0.54
4,NCI-H23,0.783
5,NCI-H322M,0.799
6,NCI-H441,0.713
7,NCI-H460,0.536
8,NCI-H520,0.588
9,NCI-H647,0.429
10,NCI-H727,0.755
11,NCI-H838,0.556
12,NCI-H1355,0.522
13,NCI-H1395,0.493
14,NCI-H1437,0.3
15,NCI-H1650,0.387
16,NCI-H1651,0.292

row,Cell Line,relative viability
1,NCI-H1666,0.583
2,NCI-H1734,0.385
3,NCI-H1755,0.643
4,NCI-H1792,0.314
5,NCI-H1915,0.367
6,NCI-H1944,0.189
7,NCI-H1975,0.4
8,NCI-H1993,0.534
9,NCI-H2009,0.513
10,NCI-H2023,0.409
11,NCI-H2085,0.703
12,NCI-H2087,0.508
13,NCI-H2126,0.511
14,NCI-H2170,0.419
15,NCI-H2347,0.473
16,NCI-H2405,0.378

# Same assay, conditions: first compound 0.3162 µM
row,Cell Line,relative viability
1,LOU-NH91,0.706
2,LU99A,0.769
3,LXF-289,0.406
4,NCI-H322M,0.579
5,NCI-H460,0.526
6,NCI-H520,0.281
7,NCI-H647,0.513
8,NCI-H838,0.516
9,NCI-H1355,0.382
10,NCI-H1395,0.427
11,NCI-H1437,0.272
12,NCI-H1650,0.377
13,NCI-H1651,0.287
14,NCI-H1666,0.558
15,NCI-H1755,0.527
16,NCI-H1944,0.195
17,NCI-H1975,0.41
18,NCI-H1993,0.507
19,NCI-H2009,0.426
20,NCI-H2023,0.304
21,NCI-H2126,0.528
22,NCI-H2170,0.428
23,NCI-H2347,0.488
24,NCI-H2405,0.412

# Same assay, conditions: first compound 1 µM
row,Cell Line,relative viability
1,LOU-NH91,0.683
2,LU99A,1
3,LXF-289,0.557
4,NCI-H23,0.795
5,NCI-H322M,0.797
6,NCI-H460,0.564
7,NCI-H520,0.45
8,NCI-H647,0.488
9,NCI-H727,0.511
10,NCI-H838,0.526
11,NCI-H1355,0.442
12,NCI-H1395,0.382
13,NCI-H1437,0.345
14,NCI-H1650,0.389
15,NCI-H1651,0.336
16,NCI-H1666,0.546

row,Cell Line,relative viability
1,NCI-H1734,0.367
2,NCI-H1755,0.569
3,NCI-H1792,0.328
4,NCI-H1915,0.359
5,NCI-H1944,0.198
6,NCI-H1975,0.399
7,NCI-H1993,0.509
8,NCI-H2009,0.458
9,NCI-H2023,0.322
10,NCI-H2085,0.872
11,NCI-H2087,0.462
12,NCI-H2126,0.507
13,NCI-H2170,0.423
14,NCI-H2347,0.333
15,NCI-H2405,0.398
